In paper PMC4295349, “Synthetic Antimicrobial Peptides Exhibit Two Different Binding Mechanisms to the Lipopolysaccharides Isolated from Pseudomonas aeruginosa and Klebsiella pneumoniae” (International Journal of Medicinal Chemistry, 2014):
Read-outs that look alike come from different tables or passages of the source. Where a SMILES comes first, the peptide text is derived from it. [ ]: non-standard residue; d: D form. ξ: configuration not given here. Oic = O=C(O)[C@@H]1C[C@@H]2CCCC[C@@H]2N1; Oic(3aξ,7aξ) = O=C(O)[C@@H]1CC2CCCCC2N1; Tic = O=C(O)[C@@H]1Cc2ccccc2CN1; βAla = NCCC(=O)O

What was measured:
K. pneumoniae BAMC 07-18 [1] = conditions: for in vitro inhibitory activity: against K. pneumoniae
[2] = system: LPS isolated from K. pneumoniae; experiment: 1H NMR of LPS on addition of AMP; assay type: binding, Klebsiella pneumoniae; conditions: 1.0 mg/mL LPS + 0.1 mg AMP in 600 μL 150 mM perdeuterated sodium acetate buffer pH 5.64 in D2O, 298 K
Experimental: (§1) All ^1H experiments were conducted at 298 K on a Bruker Avance III 400 MHz NMR spectrometer equipped with a 5 mm direct observe Z-gradient broad-band probe. The spectral width was 4,000 Hz, 256 FIDs were collected per experiment. Data were processed using exponential multiplication with a line-broadening function of 5 Hz. Samples contained 1.0 mg/mL of the LPS in the presence of 0.1 mg of the AMP in 600 μL of a 150 mM perdeuterated sodium acetate buffer at a pH of 5.64 in D2O.

P. aeruginosa PAO1 [3] = assay type: cell-based, Pseudomonas aeruginosa
Text: Table 3 In vitro minimum inhibitory concentration (MIC) and minimum bactericide concentration (MBC) activity against K. pneumonia and P. aeruginosa. | column: P. aeruginosa PAO1 / MBC (µg/mL)/(μM)

[4] = system: LPS isolated from P. aeruginosa; experiment: 1H NMR of LPS on addition of AMP; assay type: binding, Pseudomonas aeruginosa; conditions: 1.0 mg/mL LPS + 0.1 mg AMP in 600 μL 150 mM perdeuterated sodium acetate buffer pH 5.64 in D2O, 298 K
Experimental: as §1

P. aeruginosa PAO1 [5] = conditions: for in vitro inhibitory activity: against P. aeruginosa
K. pneumoniae BAMC 07-18 [6] = assay type: cell-based, Klebsiella pneumoniae
Text: Table 3 In vitro minimum inhibitory concentration (MIC) and minimum bactericide concentration (MBC) activity against K. pneumonia and P. aeruginosa. | column: K. pneumoniae BAMC 07-18 / MBC (μg/mL)/(μM)

[7] = P. aeruginosa PAO1, light face value
[8] = K. pneumoniae BAMC 07-18, light face value

Row | Compound | MIC (K. pneumoniae BAMC 07-18 [1]; BAMC 07-18) | in vitro inhibitory activity (K. pneumoniae BAMC 07-18 [1]) [µg/mL] | change of LPS 1H NMR resonances in the region of 1.8 to 0.7 ppm (lipid A) [2] | MBC (P. aeruginosa PAO1 [3]; PAO1) | change of LPS 1H NMR resonances between 1.5 and 0.5 ppm (lipid A side chains) [4] | MIC (P. aeruginosa PAO1 [5]; PAO1) | in vitro inhibitory activity (P. aeruginosa PAO1 [5]) [µg/mL] | MBC (K. pneumoniae BAMC 07-18 [6]; BAMC 07-18) | MBC (P. aeruginosa PAO1 [3]; [7]) [µg/mL] | MIC (P. aeruginosa PAO1 [5]; [7]) [µg/mL] | MIC (K. pneumoniae BAMC 07-18 [1]; [8]) [µg/mL] | MBC (K. pneumoniae BAMC 07-18 [6]; [8]) [µg/mL]
1 | CC(=O)N[C@@H](CCCCN)C(=O)N[C@@H](CC(C)C)C(=O)N1Cc2ccccc2C[C@H]1C(=O)N1[C@H](C(=O)N[C@@H](CCCCN)C(=O)N2Cc3ccccc3C[C@H]2C(=O)N2[C@H](C(=O)N[C@@H](Cc3ccccc3)C(=O)N3Cc4ccccc4C[C@H]3C(=O)N3[C@H](C(=O)N[C@@H](CCCCN)C(=O)N4Cc5ccccc5C[C@H]4C(=O)N4[C@H](C(=O)N[C@@H](Cc5ccccc5)C(=O)N5Cc6ccccc6C[C@H]5C(=O)N5[C@H](C(=O)N[C@@H](CCCCN)C(=O)N6Cc7ccccc7C[C@H]6C(=O)N6[C@H](C(=O)N[C@@H](CCCCN)C(=O)N[C@@H](CCCCN)C(=O)N[C@@H](CCCCN)C(=O)N[C@@H](CCCCN)C(N)=O)C[C@@H]7CCCC[C@@H]76)C[C@@H]6CCCC[C@@H]65)C[C@@H]5CCCC[C@@H]54)C[C@@H]4CCCC[C@@H]43)C[C@@H]3CCCC[C@@H]32)C[C@@H]2CCCC[C@@H]21 [AMP 70] (Ac-KL[Tic][Oic]K[Tic][Oic]F[Tic][Oic]K[Tic][Oic]F[Tic][Oic]K[Tic][Oic]KKKK-NH2) | >100 µg/mL | ≥ 100 | reduction in the signal intensity | >100 µg/mL | significant reduction in the peak heights | >100 µg/mL | ≥ 100 | >100 µg/mL |  |  |  | 
2 | CC(C)C[C@H](NC(=O)[C@@H](N)CCCCN)C(=O)N1Cc2ccccc2C[C@H]1C(=O)N1[C@H](C(=O)N[C@@H](CCCCN)C(=O)N2Cc3ccccc3C[C@H]2C(=O)N2[C@H](C(=O)NCC(=O)N[C@@H](Cc3ccccc3)C(=O)N3Cc4ccccc4C[C@H]3C(=O)N3[C@H](C(=O)N[C@@H](CCCCN)C(=O)N4Cc5ccccc5C[C@H]4C(=O)N4[C@H](C(=O)NCC(=O)N[C@@H](Cc5ccccc5)C(=O)N5Cc6ccccc6C[C@H]5C(=O)N5[C@H](C(=O)N[C@@H](CCCCN)C(=O)N6Cc7ccccc7C[C@H]6C(=O)N6[C@H](C(=O)N[C@@H](CCCCN)C(=O)N[C@@H](CCCCN)C(=O)N[C@@H](CCCCN)C(=O)N[C@@H](CCCCN)C(N)=O)C[C@@H]7CCCC[C@@H]76)C[C@@H]6CCCC[C@@H]65)C[C@@H]5CCCC[C@@H]54)C[C@@H]4CCCC[C@@H]43)C[C@@H]3CCCC[C@@H]32)C[C@@H]2CCCC[C@@H]21 [AMP 75] (H-KL[Tic][Oic]K[Tic][Oic]GF[Tic][Oic]K[Tic][Oic]GF[Tic][Oic]K[Tic][Oic]KKKK-NH2) |  | ≥ 100 | reduction in the signal intensity | 14.6 µM | significant reduction in the peak heights | 14.6 µM | 50 |  | 50 | 50 |  | 
3 | CC(C)C[C@H](NC(=O)[C@@H](N)CCCCN)C(=O)N1Cc2ccccc2C[C@H]1C(=O)N1C2CCCCC2C[C@H]1C(=O)N[C@@H](CCCCN)C(=O)NCC(=O)N1Cc2ccccc2C[C@H]1C(=O)N1C2CCCCC2C[C@H]1C(=O)N[C@@H](Cc1ccccc1)C(=O)NCC(=O)N1Cc2ccccc2C[C@H]1C(=O)N1C2CCCCC2C[C@H]1C(=O)N[C@@H](CCCCN)C(=O)NCC(=O)N1Cc2ccccc2C[C@H]1C(=O)N1C2CCCCC2C[C@H]1C(=O)N[C@@H](Cc1ccccc1)C(=O)NCC(=O)N1Cc2ccccc2C[C@H]1C(=O)N1C2CCCCC2C[C@H]1C(=O)N[C@@H](CCCCN)C(=O)NCC(=O)N1Cc2ccccc2C[C@H]1C(=O)N1C2CCCCC2C[C@H]1C(=O)N[C@@H](CCCCN)C(=O)N[C@@H](CCCCN)C(=O)N[C@@H](CCCCN)C(=O)N[C@@H](CCCCN)C(N)=O (some centres unmarked) [AMP 79] (H-KL[Tic][Oic(3aξ,7aξ)]KG[Tic][Oic(3aξ,7aξ)]FG[Tic][Oic(3aξ,7aξ)]KG[Tic][Oic(3aξ,7aξ)]FG[Tic][Oic(3aξ,7aξ)]KG[Tic][Oic(3aξ,7aξ)]KKKK-NH2) | 13.9 µM | 50 | reduction in the signal intensity | 13.9 µM | significant reduction in the peak heights | 13.9 µM | 50 | 13.9 µM | 50 | 50 | 50 | 50
4 | CC(C)C[C@H](NC(=O)[C@@H](N)CCCCN)C(=O)N1Cc2ccccc2C[C@H]1C(=O)N1C2CCCCC2C[C@H]1C(=O)NCC(=O)N[C@@H](CCCCN)C(=O)N1Cc2ccccc2C[C@H]1C(=O)N1C2CCCCC2C[C@H]1C(=O)NCCC(=O)N[C@@H](Cc1ccccc1)C(=O)N1Cc2ccccc2C[C@H]1C(=O)N1C2CCCCC2C[C@H]1C(=O)NCC(=O)N[C@@H](CCCCN)C(=O)N1Cc2ccccc2C[C@H]1C(=O)N1C2CCCCC2C[C@H]1C(=O)NCCC(=O)N[C@@H](Cc1ccccc1)C(=O)N1Cc2ccccc2C[C@H]1C(=O)N1C2CCCCC2C[C@H]1C(=O)NCC(=O)N[C@@H](CCCCN)C(=O)N1Cc2ccccc2C[C@H]1C(=O)N1C2CCCCC2C[C@H]1C(=O)N[C@@H](CCCCN)C(=O)N[C@@H](CCCCN)C(=O)N[C@@H](CCCCN)C(=O)N[C@@H](CCCCN)C(N)=O (some centres unmarked) [AMP 80] (H-KL[Tic][Oic(3aξ,7aξ)]GK[Tic][Oic(3aξ,7aξ)][βAla]F[Tic][Oic(3aξ,7aξ)]GK[Tic][Oic(3aξ,7aξ)][βAla]F[Tic][Oic(3aξ,7aξ)]GK[Tic][Oic(3aξ,7aξ)]KKKK-NH2) | 13.8 µM | 50 | reduction in the signal intensity | 13.8 µM | significant reduction in the peak heights | 6.9 µM | 50 | 13.8 µM | 50 | 25 | 50 | 50
5 | H2N-KL-Tic-Oic-GK-Tic-Oic-F-Tic-Oic-GK-Tic-Oic-F-Tic-Oic-GK-Tic-Oic-KKKK-CONH2 [AMP 74] |  | ≥ 100 | reduction in the signal intensity |  | significant reduction in the peak heights |  | ≥ 100 |  |  |  |  | 
